Data from publication PMC8791529, “Schistosoma mansoni α-N-acetylgalactosaminidase (SmNAGAL) regulates coordinated parasite movement and egg production” (PLoS Pathogens, 2022).

Biological target: T1, SmNAGAL (Smp_089290) (Schistosoma mansoni, UniProt A0A8F5XXF6)
T1 construct: gene NAGAL; native enzyme in soluble worm antigen preparation (SWAP) of adult worms, not purified; assigned by siRNA knockdown
Assay: colorimetric hydrolysis at […] nm in worm extract, with siRNA knockdown
Type: biochemical
Settings: 0.15 M McIlvaine buffer pH 4.6, 37 °C, 60 min; SWAP of siLuc and siSmp_089290 worms

CC(=O)N[C@H]1[C@@H](Oc2ccc([N+](=O)[O-])cc2)O[C@H](CO)[C@H](O)[C@@H]1O [4-Nitrophenyl N-acetyl-α-D-galactosaminide]
colorimetric hydrolysis at 410 nm in worm extract, with siRNA knockdown: smnagal depletion in siRNA-treated worms significantly reduced α-NAGAL activity in SWAP
